Reference: ChEMBL document CHEMBL1152060, “Pentamidine congeners 1: Synthesis of Cis- and Trans-butamidine analogues as anti-Pneumocystis carinii pneumonia agents” (1993)

What was measured:
[1] = system: Rattus norvegicus; experiment: Anti-Pneumocystis carinii Pneumonia activity at intravenous dosage of 10.0 mg/kg/day in rat; type: functional
[2] = system: Rattus norvegicus; experiment: In vivo toxicity […] at intravenous dosage of 10.0 mg/kg/day in rat; type: functional

C(=C\COc1ccc(C2=NCCN2)cc1)/COc1ccc(C2=NCCN2)cc1
Control [1]: 1.5% | Toxicity [2]: 0

N=C(N)c1ccc(OC/C=C/COc2ccc(C(=N)N)cc2)cc1
Control [1]: 0.8% | Toxicity [2]: 0

N=C(N)c1ccc(OC/C=C\COc2ccc(C(=N)N)cc2)cc1
Control [1]: 1.3% | Toxicity [2]: 0

C(=C/COc1ccc(C2=NCCN2)cc1)/COc1ccc(C2=NCCN2)cc1
Control [1]: 1.4% | Toxicity [2]: 0

N=C(N)c1ccc(OCCCCCOc2ccc(C(=N)N)cc2)cc1 [PENTAMIDINE]
Control [1]: 4.5% | Toxicity [2]: 2
